Measurements reported in patent publication US9096832B2, “Differentiation of human embryonic stem cells” (LifeScan, Inc., priority 2007, dated 2015).

Test system: H9 embryonic stem cells
Assay: Microarray analysis of definitive endoderm stage cells on […] or MEFs +/- Wnt-3a (Table VI)
Assay type: cell-based, human
Settings: low serum, on MEFS
Protocol: Controls for each group included cells plated on [sequence]—coated dishes and cultured in MEF-conditioned medium or cells plated on MEFs and cultured in ES medium. All groups contained three biological replicates and each biological replicate was repeated on two separate gene chips.
Sample preparation, hybridization, and image analysis were performed according to the Affymetrix Human Genome U133 Plus 2.0 Array. Following normalization and a log transformation, data analysis was performed using OmniViz® software (MA) and [sequence] […] Significant differences in gene expression between the samples were evaluated using analysis of variance and an F-test with adjusted P-value (Benjamini and Hochberg correction) of less-than or equal to 0.05. Only genes with a present call in at least one group were included in the analysis.

## Activin A: activin A (a member of the TGFβ superfamily), R&D Systems; 'w/o wnt' in Table VII = 100 ng/ml Activin A without Wnt3a
  Intensity (log): Homo sapiens haptoglobin-related protein (HPR), mRNA: −1.196
  Intensity (log): Homo sapiens homeobox protein goosecoid mRNA, complete cds: 1.894
  Intensity (log): Homo sapiens hypothetical protein FLJ10718 (FLJ10718), mRNA: 5.552
  Intensity (log): Homo sapiens hypothetical protein FLJ10970 (FLJ10970), mRNA: 3.02
  Intensity (log): Homo sapiens hypothetical protein FLJ11316 (FLJ11316), mRNA: 0.7553
  Intensity (log): Homo sapiens hypothetical protein FLJ22252 similar to SRY-box containing gene 17 (FLJ22252), mRNA: 4.5979
  Intensity (log): Homo sapiens lumican (LUM), mRNA: 0.9488
  Intensity (log): Homo sapiens mRNA for GATA-6, complete cds: 5.343
  Intensity (log): Homo sapiens mRNA for KIAA1409 protein, partial cds: −1.032
  Intensity (log): Homo sapiens mRNA; cDNA DKFZp434D0818 (from clone DKFZp434D0818): −0.3056
  Intensity (log): Homo sapiens mRNA; cDNA DKFZp586J0624 (from clone DKFZp586J0624); complete cds: 3.699
  Intensity (log): Homo sapiens presenilin stabilization factor b (PSF) mRNA, complete cds; alternatively spliced: 0.5675
  Intensity (log): Homo sapiens reserved (KCNK12), mRNA: 3.78
  Intensity (log): Homo sapiens retinoid X receptor, gamma (RXRG), mRNA: −0.3204
  Intensity (log): Homo sapiens sema domain, immunoglobulin domain (Ig), short basic domain, secreted, (semaphorin) 3E (SEMA3E), mRNA: 1.276
  Intensity (log): Homo sapiens sema domain, seven thrombospondin repeats (type 1 and type 1-like), transmembrane domain (TM) and short cytoplasmic domain, (semaphorin) 5A (SEMA5A), mRNA: 1.487
  Intensity (log): Homo sapiens solute carrier family 21 (prostaglandin transporter), member 2 (SLC21A2), mRNA: 2.433
  Intensity (log): Homo sapiens type VI collagen alpha 2 chain precursor (COL6A2) mRNA, complete cds, alternatively spliced: 2.845
  Intensity (log): Homo sapiens, alpha-1 (VI) collagen: −2.269
  Intensity (log): Homo sapiens, clone MGC: 4655, mRNA, complete cds: 2.476
  Intensity (log): Human (clone 8B1) Br-cadherin mRNA, complete cds: −1.026
  Intensity (log): Human (clone HSY3RR) neuropeptide Y receptor (NPYR) mRNA, complete cds: 5.48
  Intensity (log): Human DNA sequence from clone RP1-181C24 on chromosome 6p11.1-12.2. Contains the 3 end of the BMP5 gene for bone morphogenetic protein 5, ESTs, STSs and GSSs: −0.3731
  Intensity (log): Human Fritz mRNA, complete cds: 3.915
  Intensity (log): Human dipeptidyl peptidase IV (CD26) mRNA, complete cds: −1.256
  Intensity (log): Human glycophorin HeP2 mRNA, partial cds: 0.2335
  Intensity (log): Human link protein mRNA, complete cds: −1.263
  Intensity (log): Human mRNA for alpha-1 type II collagen: −0.3802
  Intensity (log): Human mRNA for apolipoprotein AI (apo AI): 2.497
  Intensity (log): Human prostatic secretory protein 57 mRNA, complete cds: −0.4077
  Intensity (log): KIAA1462 protein: 0.4371
  Intensity (log): MCP-1 = monocyte chemotactic protein (human, aortic endothelial cells, mRNA, 661 nt): 2.955
  Intensity (log): Rho GDP dissociation inhibitor (GDI) alpha: −2.582
  Intensity (log): WAS protein family, member 2: −1.06
  Intensity (log): collagen, type IX, alpha 2: 2.935
  Intensity (log): collagen, type VI, alpha 1: 0.6042
  Intensity (log): hepatocyte nuclear factor 4, alpha: 0.4452
  Intensity (log): homeo box HB9: 1.631
  Intensity (log): hypothetical protein FLJ21032: 2.618
  Intensity (log): hypothetical protein FLJ23091: 3.78
  Intensity (log): microfibrillar-associated protein 4: −0.6009
  Intensity (log): myristoylated alanine-rich protein kinase C substrate (MARCKS, 80K-L): 0.3357
  Intensity (log): neuropilin 1: −1.9667
  Intensity (log): noggin: 1.33
  Intensity (log): splicing factor, arginine serine-rich 5: 4.272
  Intensity (log): stanniocalcin 1: 6.143
r13
  Intensity (log): ESTs: −4.27
r16
  Intensity (log): ESTs: −2.6475
r20
  Intensity (log): solute carrier family 16 (monocarboxylic acid transporters), member 3: 0.279
r30
  Intensity (log): Homo sapiens solute carrier family 16 (monocarboxylic acid transporters), member 3 (SLC16A3), mRNA: 1.724
r49
  Intensity (log): ESTs: 0.967
r50
  Intensity (log): glycophorin B (includes Ss blood group): −0.1297
r62
  Intensity (log): ESTs: −0.2374
r66
  Intensity (log): Homo sapiens HNF-3beta mRNA for hepatocyte nuclear factor-3 beta, complete cds: 2.825
r81
  Intensity (log): ESTs: −2.321
r92
  Intensity (log): ESTs: 0.926
r98
  Intensity (log): ESTs: −2.206
r108
  Intensity (log): ESTs: −1.825
r121
  Intensity (log): Homo sapiens phorbolin-like protein MDS019 (MDS019), mRNA: 2.408
r129
  Intensity (log): ESTs: 0.4204
r136
  Intensity (log): ESTs: 3.522
r137
  Intensity (log): ESTs: 0.761
r142
  Intensity (log): ESTs: 1.433
r145
  Intensity (log): ESTs: 1.0501
r165
  Intensity (log): Cluster Incl. AB028021: Homo sapiens HNF-3beta mRNA for hepatocyte nuclear factor-3 beta, complete cds: 4.117
r205
  Intensity (log): hypothetical protein FLJ23403: −2.313
r215
  Intensity (log): matrix metalloproteinase 14 (membrane-inserted): −0.5185
r218
  Intensity (log): Homo sapiens glycophorin B (includes Ss blood group) (GYPB), mRNA: 0.1803
r234
  Intensity (log): ESTs: 3.913
r240
  Intensity (log): ESTs: 3.125
r241
  Intensity (log): ESTs: −0.5703
r250
  Intensity (log): KIAA0878 protein: 4.789
r260
  Intensity (log): ESTs: 4.814
r270
  Intensity (log): Homo sapiens matrix metalloproteinase 14 (membrane-inserted) (MMP14), mRNA: −0.09689
r278
  Intensity (log): ESTs: 0.6202
r290
  Intensity (log): ESTs: 2.657
r301
  Intensity (log): ESTs: 3.372
r314
  Intensity (log): ESTs: −0.2982
r315
  Intensity (log): Homo sapiens hypothetical protein FLJ23403 (FLJ23403), mRNA: −1.004
r319
  Intensity (log): ESTs: −0.1895
r332
  Intensity (log): Homo sapiens KIAA0878 protein (KIAA0878), mRNA: 5.654
r340
  Intensity (log): phorbolin-like protein MDS019: 0.5035
r347
  Intensity (log): ESTs: 3.749
r376
  Intensity (log): ESTs: 0.8249
r377
  Intensity (log): ESTs: −1.364
